Measured values published in PubChem BioAssay AID2060882 (Molecular Pharmacology Branch, DTP, NCI, 2025).
Where “and” joins values, the source holds several entries; their conditions need not be identical. Equal values may be shown once.

System: 898857-211-R-J1-PDC complex spheroids, growth % test/control
Test: Anticancer human tumor 898857-211-R-J1-PDC patient-derived melanoma cell line growth inhibition [RAS]
Details: for viability, T/C: stronger effect = lower value
Description: RAS pathway inhibitors in Combinations in Complex Spheroids
A high-throughput screen of multi-cell type tumor spheroids was designed to identify active combinations of RAS pathway inhibitors and targeted small molecules. Complex spheroids include a stromal component modeled by human endothelial cells (HUVEC) and fibroblasts modeled by human mesenchymal stem cells (MSCs). The concentration ranges selected for each drug and investigational agent were based upon clinically achievable concentrations if the clinical Cmax of the agent was known.
Compounds. The drugs and investigational agents: abemaciclib (NSC768073), cobimetinib (NSC768068), divarasib (GDC6063, NSC841802), docetaxel (NSC628503), GDC-1971 (RLY-1971, NSC841576), gemcitabine (NSC613327), inavolisib (NSC800729), ipatasertib (NSC767898), KB-0742 (NSC834161), MRTX-1133 (NSC836407), osimertinib (NSC779217), RMC-4630 (NSC839698), RMC-6236 (NSC851965), RMC-6291 (NSC852671), Ro-3306 (NSC812927), sapanisertib (NSC764658), SN-38 (NSC673596), staurosporine (NSC755774), SY5609 (NSC837396), and tovorafenib (DAY101, NSC766906), were obtained from the National Cancer Institute (NCI) Developmental Therapeutics Program Chemical Repository. The FDA-approved anticancer drug set is available from the NCI Developmental Therapeutics Program. […] The stock solutions were prepared in dimethyl sulfoxide (DMSO, Sigma-Aldrich, St. Louis, MO, cat. D2650) at 800-fold the tested concentration and stored at -70 degrees C prior to their use. All drugs and investigational agents were tested over a range starting from a high concentration at or near the clinical Cmax and decreasing in half-log increments. If the clinical Cmax for an agent had not been determined, the highest concentration tested was 10 microM.
Cell Culture. All cells were maintained in an incubator at 37 degrees C and 5% CO2 with 95% humidity. The PDC lines were cultured according to standard operating procedures established by the NCI PDMR. All PDCs were thawed and cultured in Matrigel-coated flasks prepared with a working solution of 1X Ham's F-12 nutrient mix, without supplementation (Invitrogen, Waltham, MA, cat. 11765054), 100 U/mL penicillin-streptomycin (Invitrogen, cat. 15140122), and 2.5% Matrigel (Corning Inc., Corning, NY, cat. 354248) for the first three passages. The 362531-283-R-J2-PDC and 782815-120-R-J1-PDC lines were cultured in 6C/Colon 1B media, which includes advanced DMEM/F-12 (Thermo Fisher Scientific, cat. 12634028), 10 mM HEPES (Thermo Fisher Scientific, cat. 15630080), 1X GlutaMAX supplement (Thermo Fisher Scientific, cat. 35050061), 0.1 mg/mL primocin (InvivoGen, San Diego, CA, cat. ant-pm-2), 10% defined fetal bovine serum, heat inactivated (HyClone Laboratories Inc., Logan, UT, cat. SH30070.03HI), 50% L-WRN conditioned media (ATCC, cat. CRL-3276), 1.25 mM N-Acetyl-L-cysteine (Sigma-Aldrich, cat. A9165), 10 mM nicotinamide (Sigma-Aldrich, cat. N0636), 1X B-27 supplement (Thermo Fisher Scientific, cat. 17504044), 1X N-2 supplement (Thermo Fisher Scientific, cat. 17502048), 50 ng/mL human EGF (Thermo Fisher Scientific, cat. PHG0311), and 10 microM Y-27632 dihydrochloride (Tocris Bioscience, cat. 1254). The K12877-001-R-J1-PDC line was cultured in 6I media, which includes all 6C/Colon 1B media plus 10 ng/mL human FGF-10 (PeproTech, cat. 100-26), 1 ng/mL human FGF-2 (PeproTech, cat. 100-18B), 1 µM prostaglandin E2 (Tocris Bioscience, cat. 2296), […] hydrocortisone (Sigma-Aldrich, cat. H4001), and […] bovine insulin (Sigma-Aldrich, cat. I6634). The K86415-001-R-J1-PDC line was cultured in 6D media, which includes all 6C/Colon 1B media components minus the L-WRN conditioned media. The 485176-168-R4-J1-PDC was cultured in PANC media, which includes all 6C/Colon 1B media plus 100 ng/mL human FGF-10 (PeproTech, cat. 100-26), 500 nM SB-431542 (Selleckchem, cat. S1067), and 10 nM gastrin (Tocris Bioscience, cat. 3006). […]
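Note: spheroids exposed to compound for seven days before readout.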
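Throughout, for viability, T/C: 100% = DMSO vehicle control wells.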

Which results are given for `CC(C)n1nc(-c2ccc3oc(N)nc3c2)c2c(N)ncnc21`?
viability, T/C (compound 0.000316 µM): 112% [middle of 4 runs]; viability, T/C (compound 0.001 µM): 95.8% [middle of 4 runs]; viability, T/C (compound 0.00316 µM): 96.8% [middle of 4 runs]; viability, T/C (compound 0.01 µM): 73.3% [middle of 4 runs]; viability, T/C (compound 0.0316 µM): 48.5% [middle of 4 runs]; viability, T/C (compound 0.1 µM): 20.9% [middle of 4 runs]; IC50 (curve of compound): 28.7 nM [middle of 4 runs]

Which viability, T/C (compound 0.000949 µM) does the source give for `CC1(C)CCC(Nc2ncc(C(F)(F)F)c(-c3c[nH]c4c(P(C)(C)=O)c(C#N)ccc34)n2)CN1` (centres undefined) here?
The viability, T/C was 92.3% and 96.9% and 98.6%.

And the viability, T/C (compound 0.003 µM)?
The viability, T/C was 59.9% and 52.9% and 65.2%.

What about the viability, T/C (compound 0.00949 µM) of the same molecule?
The viability, T/C was 31.4% and 26.4% and 32.5%.

And the viability, T/C (compound 0.03 µM)?
The viability, T/C was 20.2% and 16.2% and 24.3%.

And the viability, T/C (compound 0.0949 µM)?
The viability, T/C was 17.3% and 16.8% and 20.4%.

What about the viability, T/C (compound 0.3 µM) of the same molecule?
The viability, T/C was 18.4% and 16.5% and 20%.

What about the IC50 (curve of compound) of the same molecule?
Its IC50 is 4.47 nM and 3.41 nM and 5.16 nM.

Which results are given for `CCc1c2c(nc3ccc(O)cc13)-c1cc3c(c(=O)n1C2)COC(=O)[C@]3(O)CC`?
viability, T/C (compound 0.000949 µM): 96.5% [middle of 4 runs]; viability, T/C (compound 0.003 µM): 65.1% [middle of 4 runs]; viability, T/C (compound 0.00949 µM): 30.4% [middle of 4 runs]; viability, T/C (compound 0.03 µM): 10.2% [middle of 4 runs]; viability, T/C (compound 0.0949 µM): 7.84% [middle of 4 runs]; viability, T/C (compound 0.3 µM): 7.49% [middle of 4 runs]; IC50 (curve of compound): 4.92 nM [middle of 4 runs]

What does the source list for `CCn1c(-c2cc(N3CCN(C)CC3)cnc2C(C)OC)c2c3cc(ccc31)-c1csc(n1)CC(NC(=O)C1CC1C)C(=O)N1CCCC(N1)C(=O)OCC(C)(C)C2` (centres undefined)?
viability, T/C (compound 0.000949 µM): 111% [middle of 8 runs]; viability, T/C (compound 0.003 µM): 109% [middle of 8 runs]; viability, T/C (compound 0.00949 µM): 102% [middle of 8 runs]; viability, T/C (compound 0.03 µM): 105% [middle of 8 runs]; viability, T/C (compound 0.0949 µM): 96.2% [middle of 8 runs]; viability, T/C (compound 0.3 µM): 100% [middle of 8 runs]; IC50 (compound alone, run of 08/26/2024): > 300 nM

With `CCn1c(-c2cccnc2C(C)OC)c2c3cc(ccc31)N1CCOC(CC(NC(=O)C(C(C)C)N(C)C(=O)C3(F)CCN(C(=O)C#CC(C)(C)N(C)C)CC3)C(=O)N3CCCC(N3)C(=O)OCC(C)(C)C2)C1` (centres undefined) as the molecule, how does the viability, T/C (compound 0.000949 µM) read?
The viability, T/C was 110% [middle of 6 runs].

And the viability, T/C (compound 0.00949 µM)?
The viability, T/C was 112% [middle of 6 runs].

And the viability, T/C (compound 0.03 µM)?
The viability, T/C was 103% [middle of 6 runs].

And the viability, T/C (compound 0.0949 µM)?
The viability, T/C was 92.8% [middle of 6 runs].

And the viability, T/C (compound 0.3 µM)?
Its viability, T/C is 81.3% [middle of 6 runs].

And the IC50 (compound alone, run of 08/20/2024)?
Its IC50 is > 300 nM.
